Test results from ChEMBL document CHEMBL3862025, “Novel substituted hydrazono indolo[2,1-b]quinazoline-6,12-dione analogues as cytostatic agents: Synthesis, crystal structure, biological evaluation and molecular docking studies” (Bioorg Med Chem Lett, 2016).
In brackets after ≈: the same amount, converted by molar mass.

Key:
[1] = Cytotoxicity against human MCF7 cells assessed as inhibition of cell viability after 48 hrs by MTT assay; assay type: functional, cell-based; details: MCF7, 48 h
[2] = Cytotoxicity against human A549 cells assessed as inhibition of cell viability after 48 hrs by MTT assay; assay type: functional, cell-based; details: A549, 48 h
[3] = Cytotoxicity against human HeLa cells assessed as inhibition of cell viability after 48 hrs by MTT assay; assay type: functional, cell-based
[4] = system: Staphylococcus aureus; experiment: Antibacterial activity against Staphylococcus aureus after 24 hrs by broth dilution method; assay type: functional
[5] = system: Bacillus subtilis; experiment: Antibacterial activity against Bacillus subtilis after 24 hrs by broth dilution method; assay type: functional
[6] = system: Klebsiella pneumoniae; experiment: Antibacterial activity against Klebsiella pneumoniae after 24 hrs by broth dilution method; assay type: functional
[7] = system: Escherichia coli; experiment: Antibacterial activity against Escherichia coli after 24 hrs by broth dilution method; assay type: functional
[8] = system: Aspergillus niger; experiment: Antifungal activity against Aspergillus niger by agar streak dilution method; assay type: functional
[9] = Antifungal activity against Penicillium notatum by agar streak dilution method; assay type: functional; details: Penicillium chrysogenum

| SMILES | IC50 [1] [µM] | IC50 [2] [µM] | IC50 [3] [µM] | MIC [4] [µg/mL] | MIC [5] [µg/mL] | MIC [6] [µg/mL] | MIC [7] [µg/mL] | MIC [8] [µg/mL] | MIC [9] [µg/mL] |
| --- | --- | --- | --- | --- | --- | --- | --- | --- | --- |
| CCO/C(O)=C/C(C)=N/N=C1/c2cc(Br)ccc2-n2c1nc1ccccc1c2=O | 36.6 | 40 | 36.7 | 1.56 (≈ 3.45 µM) | 3.12 (≈ 6.89 µM) | 12.5 (≈ 27.6 µM) | 6.25 (≈ 13.8 µM) | 6.25 (≈ 13.8 µM) | 3.12 (≈ 6.89 µM) |
| CC1(C)CC(O)=C/C(=N/N=C2/c3cc(Br)ccc3-n3c2nc2ccccc2c3=O)C1 | 40 | 46.3 | 39.8 | > 100 | > 100 | > 100 | > 100 | 100 (≈ 216 µM) | > 100 |
| CCO/C(O)=C/C(C)=N/N=C1/c2ccccc2-n2c1nc1ccccc1c2=O | 50.6 | 51.1 | 42.9 | 6.25 (≈ 16.7 µM) | 6.25 (≈ 16.7 µM) | 12.5 (≈ 33.4 µM) | 12.5 (≈ 33.4 µM) | 12.5 (≈ 33.4 µM) | 25 (≈ 66.8 µM) |
| CC(O)=CC(C)=N/N=C1/c2cc(C)cc(C)c2-n2c1nc1ccccc1c2=O | 44.5 | 46.6 | 42 | 12.5 (≈ 33.6 µM) | 12.5 (≈ 33.6 µM) | 6.25 (≈ 16.8 µM) | 25 (≈ 67.1 µM) | 100 (≈ 269 µM) | 100 (≈ 269 µM) |
| O=c1c2ccccc2nc2n1-c1ccccc1/C2=N/N=C1/C=C(O)CCC1 | 27.9 | 29.8 | 23.9 | 6.25 (≈ 17.5 µM) | 3.12 (≈ 8.77 µM) | 12.5 (≈ 35.1 µM) | 6.25 (≈ 17.5 µM) | 12.5 (≈ 35.1 µM) | 25 (≈ 70.1 µM) |
| CC1(C)CC(O)=C/C(=N/N=C2/c3ccccc3-n3c2nc2ccccc2c3=O)C1 | 68.8 | 66.2 | 59.3 | 50 (≈ 130 µM) | 50 (≈ 130 µM) | 12.5 (≈ 32.5 µM) | 50 (≈ 130 µM) | 100 (≈ 260 µM) | 100 (≈ 260 µM) |
| O=c1c2ccccc2nc2n1-c1ccccc1/C2=N/N=C1/C=C(O)c2ccccc21 | 50.3 | 56.4 | 49.4 | 3.12 (≈ 8 µM) | 6.25 (≈ 16 µM) | 1.56 (≈ 4 µM) | 12.5 (≈ 32 µM) | 6.25 (≈ 16 µM) | 12.5 (≈ 32 µM) |
| COc1ccc2c(c1)/C(=N/N=C1/C=C(O)c3ccccc31)c1nc3ccccc3c(=O)n1-2 | 60.9 | 63.5 | 62.3 | 1.56 (≈ 3.72 µM) | 3.12 (≈ 7.43 µM) | 12.5 (≈ 29.7 µM) | 6.25 (≈ 14.9 µM) | 50 (≈ 119 µM) | 50 (≈ 119 µM) |
| CC(=O)N1CCN(c2ccc(OCC3COC(Cn4ccnc4)(c4ccc(Cl)cc4Cl)O3)cc2)CC1 (stereo unspecified) [KETOCONAZOLE] |  |  |  |  |  |  |  | 3.12 (≈ 5.88 µM) | 3.12 (≈ 5.88 µM) |
| CC(O)=CC(C)=N/N=C1/c2cc(Br)ccc2-n2c1nc1ccccc1c2=O | 33 | 31.1 | 31.2 | 50 (≈ 118 µM) | 50 (≈ 118 µM) | > 100 | 50 (≈ 118 µM) | > 100 | > 100 |
| CCO/C(O)=C/C(C)=N/N=C1/c2cc(OC)ccc2-n2c1nc1ccccc1c2=O | 54.5 | 56.2 | 58.2 | 6.25 (≈ 15.5 µM) | 6.25 (≈ 15.5 µM) | 3.12 (≈ 7.73 µM) | 12.5 (≈ 30.9 µM) | 50 (≈ 124 µM) | 50 (≈ 124 µM) |
| COc1ccc2c(c1)/C(=N/N)c1nc3ccccc3c(=O)n1-2 | 32.3 | 31.2 | 29.2 | > 100 | > 100 | > 100 | > 100 | > 100 | 50 (≈ 171 µM) |
